# Source: patent publication US12358921B2, “Antiviral heterocyclic compounds” (priority 2022, dated 2025)
# Columns and labels:
# Assay type in all cases: cell-based
# [1] = test system: HUMAN RSV-A (“LONG” STRAIN); assay: RSV-A assay (CPE, ATPlite) in Hep-2 cells; details: human respiratory syncytial virus, 120 h, MOI 0.1, 5-day incubation
# Method in brief: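 Protection from RSV cytopathic effect read by ATP luminescence (ATPlite) after 5-day culture. Genotype A "Long" virus added at MOI 0.1 to Hep-2 monolayers at 8,000 cells/well, pre-dosed with duplicate 2-fold compound dilutions; controls include infected untreated and uninfected wells. EC50 values binned into ranges.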
# hMPV A2 TN/94-49 [2] = assay: HMPV antiviral assay Method 1 (LLC-MK2 cells, ATP-Lite); details: hMPV A2 TN/94-49, LLC-MK2 cells
# Method in brief: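 LLC-MK2 cells infected in suspension with hMPV A2 TN/94-49 at MOI 0.005, 5,000 cells/well, in serum-free OptiMEM with 2 μg/mL TPCK-trypsin (final) and CaCl2; compounds in duplicate, 10 points, 2 μM top, 2.5-fold dilutions. After 7 days at 37 °C, cell health by ATP-Lite luminescence; EC50 by four-parameter fit.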
# hMPV A2 TN/94-49 [3] = assay: HMPV antiviral assay Method 2 (LLC-MK2 cells with CP-100-356, ATP-Lite); details: hMPV A2 TN/94-49, LLC-MK2 cells, 4 μM CP-100-356, Method 2
# Method in brief: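 The protective effect was measured after 7 days at 37 °C by ATP-Lite luminescence and expressed as % cell health relative to virus-only and cells-only wells, with EC50 from a four-parameter logistic. Cells were LLC-MK2 infected with strain A2 TN/94-49 (MOI 0.16) with final 2 μM CP-100-356 and 2 μg/mL TPCK-trypsin; 10 duplicate concentrations from 200 nM, 2.5-fold steps.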
SMILES,EC50 [1] [nM],EC50 (hMPV A2 TN/94-49 [2]) [nM],EC50 (hMPV A2 TN/94-49 [3]) [nM]
COc1cc(C(=O)NC[C@@](O)(c2ccccc2)c2cc3c(c(-c4cc(Cl)c(F)cc4F)n2)OC[C@]3(C)C(N)=O)cc2cc(Cl)cnc12 [Example 187],< 200,< 500,< 200
COc1cc(C(=O)NC[C@@](O)(c2cccc(F)c2)c2cc3c(c(-c4ccc5c(c4Cl)OC(F)(F)O5)n2)OC[C@]3(C)C(N)=O)cc2cn(C3(F)CC3)nc12 [Example 275],< 200,< 500,< 200
COc1cc(C(=O)NC[C@@](O)(c2ccc(F)cc2)c2cc3c(c(-c4ccc(F)c(Cl)c4Cl)n2)OC[C@]3(C)C(N)=O)cc2cn(C3(F)CC3)nc12 [Example 43],< 200,< 500,< 200
C[C@]1(C(N)=O)COc2c1cc([C@@](O)(CNC(=O)c1cc(OC3CC3)c3nn(C(F)F)cc3c1)C1CC(F)(F)C1)nc2-c1cc(F)c(F)cc1F [Example 34],< 200,< 500,< 200
COc1cc(C(=O)NCC(O)(c2cc3c(c(-c4cc(Cl)c(F)cc4F)n2)OC[C@]3(C)C(N)=O)c2cc(C(F)F)cs2)cc2cn(C3CC3)nc12 (stereo partly drawn) [Example 468],< 200,> 500,< 200
COc1cc(C(=O)NC[C@](O)(c2cc3c(c(-c4cc(Cl)c(F)cc4F)n2)OC[C@]3(C)C(N)=O)c2cccs2)cc2cn(C3CC3)nc12 [Example 474],< 200,< 500,< 200
COc1cc(C(=O)NC[C@@](O)(c2cccc(F)c2)c2cc3c(c(-c4ccc(F)c(Cl)c4Cl)n2)OC[C@]3(C)C(N)=O)cc2cn(C(F)F)nc12 [Example 270],< 200,< 500,< 200
C[C@@H](O)COc1cc(C(=O)NC[C@](O)(c2cc3c(c(-c4ccc(F)c(Cl)c4F)n2)OC[C@]3(C)C(N)=O)C2CC2)cc2cn(C3CC3)nc12 [Example 38],< 200,> 500,< 200
COc1cc(C(=O)NC[C@@](O)(c2ccccc2)c2cc3c(c(-c4cc(Cl)c(F)cc4F)n2)OC[C@]3(C)C(N)=O)cc2cc(C3CC3)nnc12 [Example 90],< 200,< 500,< 200
COc1cc(C(=O)NC[C@@](O)(c2ccccc2)c2cc3c(c(-c4ccc5c(c4)OC(F)(F)O5)n2)OC[C@]3(C)C(N)=O)cc2cn(C3CC3)nc12 [Example 18],< 200,< 500,< 200
COc1cc(C(=O)NC[C@@](O)(c2ccccc2)c2cc3c(c(-c4ccc5c(c4)OC(F)(F)O5)n2)OC[C@]3(C)C(N)=O)cc2cn(C3(F)CC3)nc12 [Example 19],< 200,< 500,< 200
COc1cc(C(=O)NC[C@@](O)(c2cccc(F)c2)c2cc3c(c(-c4cccc(Cl)c4Cl)n2)OC[C@]3(C)C(N)=O)cc2oc(C)nc12 [Example 293],< 200,< 500,< 200
COc1cc(C(=O)NC[C@@](O)(c2cccc(F)c2)c2cc3c(c(-c4cc(Cl)c(F)cc4F)n2)OC[C@]3(C)C(N)=O)cc2cn(C3CC3)nc12 [Example 132],< 200,< 500,< 200
COc1cc(C(=O)NC[C@@](O)(c2ccccc2)c2cc3c(c(-c4cc(Cl)c(F)cc4F)n2)OC[C@]3(C)C(N)=O)cc2cc(Br)cnc12 [Example 185],< 200,< 500,< 200
COc1ccc([C@](O)(CNC(=O)c2cc(OC)c3nn(C4CC4)cc3c2)c2cc3c(c(-c4cc(Cl)c(F)cc4F)n2)OC[C@]3(C)C(N)=O)cc1 [Example 165],< 200,< 500,< 200
COc1cc(C(=O)NC[C@@](O)(c2ccccc2)c2cc3c(c(-c4cc(Cl)ccc4F)n2)OC[C@]3(C)C(N)=O)cc2cn(C3CC3)nc12 [Example 144],< 200,< 500,< 200
COc1cc(C(=O)NC[C@@](O)(c2ccccc2)c2cc3c(c(-c4cc(F)c(F)cc4F)n2)OC[C@]3(C)C(N)=O)cc2cn(C3CC3)nc12 [Example 171],< 200,< 500,< 200
[2H]C([2H])([2H])c1nc2ccc(C(=O)NC[C@@](O)(c3cccc(F)c3)c3cc4c(c(-c5ccc(F)c(Cl)c5Cl)n3)OC[C@]4(C)C(N)=O)cc2o1 [Example 281],< 200,< 500,< 200
COc1cc(C(=O)NC[C@@](O)(c2ccc(C(F)(F)F)cc2)c2cc3c(c(-c4cc(Cl)c(F)cc4F)n2)OC[C@]3(C)C(N)=O)cc2cn(C3CC3)nc12 [Example 130],< 200,> 500,> 200
COc1ccc([C@](O)(CNC(=O)c2cc(OC)c3nn(C4(F)CC4)cc3c2)c2cc3c(c(-c4cc(Cl)c(F)cc4F)n2)OC[C@]3(C)C(N)=O)cc1 [Example 166],< 200,< 500,< 200
COc1cc(C(=O)NC[C@@](O)(c2ccccc2)c2cc3c(c(-c4ccc(F)c(Cl)c4Cl)n2)OC[C@]3(C)C(N)=O)cc2cc(Cl)cnc12 [Example 294],< 200,< 500,< 200
COc1cc(C(=O)NCC(O)(c2cc3c(c(-c4cc(Cl)c(F)cc4F)n2)OC[C@]3(C)C(N)=O)c2ccc(C)s2)cc2cn(C3CC3)nc12 (stereo partly drawn) [Example 470],< 200,< 500,< 200
COc1cc(C(=O)NC[C@@](O)(c2cccc(F)c2)c2cc3c(c(-c4cc(C(F)(F)F)c(F)cc4F)n2)OC[C@]3(C)C(N)=O)cc2cn(C3(F)CC3)nc12 [Example 296],< 200,< 500,< 200
COc1cc(C(=O)NC[C@@](O)(c2cccc(F)c2)c2cc3c(c(-c4ccc(F)c(Cl)c4Cl)n2)OC[C@]3(C)C(N)=O)cc2cn(C3CC3)nc12 [Example 268],< 200,< 500,< 200
COc1cc(C(=O)NC[C@](O)(c2cc3c(c(-c4ccc5c(c4)OC(F)(F)O5)n2)OC[C@]3(C)C(N)=O)C2CC2)cc2cc(C)c(F)nc12 [Example 22],< 200,< 500,< 200
CCc1cc(-c2nc([C@@](O)(CNC(=O)c3cc(OC)c4nn(C5CC5)cc4c3)C3CC3)cc3c2OC[C@]3(C)C(N)=O)ccc1F [Example 71],< 200,> 500,> 200
COc1cc(C(=O)NC[C@@](O)(c2ccccn2)c2cc3c(c(-c4cc(Cl)c(F)cc4F)n2)OC[C@]3(C)C(N)=O)cc2cn(C3CC3)nc12 [Example 463],< 200,< 500,< 200
COc1cc(C(=O)NC[C@@](O)(c2cccc(F)c2)c2cc3c(c(-c4ccc(F)c(Cl)c4Cl)n2)OC[C@]3(C)C(N)=O)cc2cn(C3(F)CC3)nc12 [Example 269],< 200,< 500,< 200
COc1cc(C(=O)NC[C@@](O)(c2ccccc2)c2cc3c(c(-c4cc(Cl)c(F)cc4F)n2)OC[C@]3(C)C(N)=O)cc2sc(N)nc12 [Example 157],< 200,< 500,< 200
C[C@]1(C(N)=O)COc2c1cc([C@@](O)(CNC(=O)c1ccc3nc(C4CC4)oc3c1)c1cccc(F)c1)nc2-c1ccc2c(c1Cl)OC(F)(F)O2 [Example 287],< 200,< 500,< 200
